Experimental data: patent US20240209028A1, “CNP COMPOUNDS” (priority 2022, published 2024)
Starred links: 1 amine or outer side, 2 acyl side, 3 side chain; linkers in the order of their positions; H or OH if unused. Positions of bridges follow the written chain, without caps; N, C: chain ends. Residues, ends and D or L forms follow the SMILES beside them. *: point of attachment. C20 diacid = O=C(O)CCCCCCCCCCCCCCCCCCC(=O)*; C18 diacid = O=C(O)CCCCCCCCCCCCCCCCC(=O)*; γGlu = O=C(O)[C@H](CCC(=O)[*:2])N[*:1]; AEEA = NCCOCCOCC(=O)O

Molecular target: T1, human natriuretic peptide receptor 2 (hNPR2) (Homo sapiens, UniProt P20594)
T1 construct: expressed in transfected cells; host or cells: HEK293 (ATCC CRL-1573), clone 35, co-transfected with pGloSensor-42F
T1 sequence (P20594 23-1047): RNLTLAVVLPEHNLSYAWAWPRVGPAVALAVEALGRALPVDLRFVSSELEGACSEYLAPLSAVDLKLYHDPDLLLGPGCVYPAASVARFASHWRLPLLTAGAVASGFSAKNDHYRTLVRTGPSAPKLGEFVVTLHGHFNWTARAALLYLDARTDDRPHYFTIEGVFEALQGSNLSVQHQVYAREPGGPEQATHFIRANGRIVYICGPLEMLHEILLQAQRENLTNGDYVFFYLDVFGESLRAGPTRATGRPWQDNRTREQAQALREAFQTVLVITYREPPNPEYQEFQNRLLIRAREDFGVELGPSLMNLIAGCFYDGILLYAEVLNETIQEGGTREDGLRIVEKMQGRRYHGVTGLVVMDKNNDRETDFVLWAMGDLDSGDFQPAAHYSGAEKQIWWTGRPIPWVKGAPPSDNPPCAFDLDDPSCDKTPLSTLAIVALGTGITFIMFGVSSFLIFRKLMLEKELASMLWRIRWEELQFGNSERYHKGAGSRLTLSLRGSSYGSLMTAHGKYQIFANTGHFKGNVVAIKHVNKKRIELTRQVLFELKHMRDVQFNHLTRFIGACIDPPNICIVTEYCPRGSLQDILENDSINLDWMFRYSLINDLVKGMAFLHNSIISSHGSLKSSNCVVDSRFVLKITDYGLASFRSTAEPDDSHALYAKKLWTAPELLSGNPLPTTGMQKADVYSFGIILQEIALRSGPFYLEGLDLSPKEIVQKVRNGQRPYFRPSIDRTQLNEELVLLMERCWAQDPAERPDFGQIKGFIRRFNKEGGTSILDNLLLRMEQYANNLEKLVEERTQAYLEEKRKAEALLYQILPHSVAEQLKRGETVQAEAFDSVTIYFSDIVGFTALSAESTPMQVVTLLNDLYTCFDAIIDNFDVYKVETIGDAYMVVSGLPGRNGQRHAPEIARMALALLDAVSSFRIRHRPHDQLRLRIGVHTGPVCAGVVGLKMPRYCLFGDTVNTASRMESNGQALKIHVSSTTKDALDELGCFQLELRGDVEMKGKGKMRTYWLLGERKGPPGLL
Assay: In vitro hNPR2 activity assay (cGMP GloSensor reporter, HEK293)
Type: cell-based
Conditions: for hNPR2 0% HSA. [EC50% rel CNP]: potency relative to CNP22 (0065)
Protocol: To evaluate the in vitro activity of CNP22 (0065; Chem. 1) and CNP compounds of the invention, they were tested for their ability to induce production of cyclic guanosine monophosphate (cGMP) in reporter cells expressing the human natriuretic peptide receptor 2 (hNPR2).
Cell culture: To produce the reporter cell line, HEK293 (ATCC® CRL-1573™) cells were stably transfected with the pGloSensor-42F reporter plasmid (GloSensor cGMP reporter—luciferase, Promega) and an expression plasmid encoding the hNPR2 receptor. A single cell clone was isolated for the reporter cell line. When reporter cells are exposed to an hNPR2 activating compound, hNPR2 cause production of cGMP. […] Active GloSensor luciferase is able to convert luciferin to oxyluciferin, a process that produces bioluminescence. Upon cell lysis and supply of luciferase substrate, luciferase activity can be quantified by detection of luminescence. Therefore, addition of an hNPR2 activating compound and subsequent addition of detection reagent to reporter cells causes generation of luminescence in a dose dependent manner. […] This measure, also referred to as in vitro potency, is reported for all compounds tested. In all the in vitro activity experiments, CNP22 was used as a positive in-plate control for hNPR2 activation. To reduce inter-assay variation, we also report the potency of each compound relative to the potency of the CNP22 control on each plate.
Procedure: HEK293-hNPR2/GloSensor clone 35 cells were continuously cultured in selection medium (DMEM containing 10% FCS, 1% P/S, 200 μg/mL G418 and 100 μg/mL hygromycin). To perform the assay, cells were detached with TrypLE Express (Gibco #12604013), put through a 70 μm cell strainer, counted and seeded in 30 μL/well assay medium (DMEM without phenol red and with 1% P/S) at 10,000 cells/well in white 384-well plates (Perkin Elmer #6007680) overnight. The following day, test compounds were serial diluted in dilution medium (DMEM without phenol red containing 1% OVA (Sigma #A5505 lot 04M7001V), 0.01% Tween20 (Roche #33766700) and 1% P/S) and 10 μL/well of diluted test compounds were subsequently added to the cells. For each compound, ten different concentrations in the range 0.25 μM-10 μM were tested. After 30 min of incubation at 37° C. and 5% CO2, 40 μL/well Bright-Glo detection reagent (Promega #E2650) was added. […] To determine the in vitro potency or EC50 of each test compound, a four parameter logistic regression was done on the raw data for each test compound using the Python package SciPy optimize. The average EC50 values are listed as “hNPR2 0% HSA. [EC50 (nM)]” in Table 2. A relative potency was calculated by the following expression: EC50 (CNP22 in-plate control)/EC50 (test compound)*100, shown as “hNPR2 0% HSA. [EC50% rel CNP]” in Table 2. A minimum of two replicates was measured for each test compound.

Compound: CC[C@H](C)[C@@H]1NC(=O)[C@H](CCCNC(=N)N)NC(=O)[C@H](CC(=O)O)NC(=O)[C@H](CC(C)C)NC(=O)[C@H](CCCCN)NC(=O)[C@H](CC(C)C)NC(=O)CNC(=O)[C@H](Cc2ccccc2)NC(=O)[C@@H](NC(=O)CNC(=O)[C@H](CCCCN)NC(=O)[C@H](CO)NC(=O)[C@H](CC(C)C)NC(=O)CNC(=O)[C@H](CCCCN)NC(=O)[C@H](CCC(=O)O)NC(=O)[C@H](CCC(N)=O)NC(=O)[C@H](C)NC(=O)CNC(=O)[C@H](CCC(=O)O)NC(=O)[C@H](Cc2ccc(O)cc2)NC(=O)COCCOCCNC(=O)COCCOCCNC(=O)CC[C@H](NC(=O)CCCCCCCCCCCCCCCCC(=O)O)C(=O)O)CSSC[C@@H](C(=O)O)NC(=O)CNC(=O)[C@H](CC(C)C)NC(=O)CNC(=O)[C@H](CO)NC(=O)[C@H](CC(C)C)NC(=O)[C@H](CO)NC(=O)CNC1=O [compound 1223] ({C18 diacid-γGlu-AEEA-AEEA}-YEGAQEKGLSKGCFGLKLDRIGSLSGLGC-OH; disulfide 13-29)
- EC50 (0% HSA, HEK293-hNPR2/GloSensor cells): 1.05 nM
- hNPR2 0% HSA. [EC50% rel CNP]: 6.77%

Compound: CC[C@H](C)[C@@H]1NC(=O)[C@H](CCCNC(=N)N)NC(=O)[C@H](CC(=O)O)NC(=O)[C@H](CC(C)C)NC(=O)[C@@H]2CCCN2C(=O)[C@H](CC(C)C)NC(=O)CNC(=O)[C@H](Cc2ccccc2)NC(=O)[C@@H](NC(=O)CNC(=O)[C@H](CCC(N)=O)NC(=O)[C@H](CO)NC(=O)[C@H](CO)NC(=O)CNC(=O)[C@H](CCCCN)NC(=O)[C@H](CCCCN)NC(=O)[C@H](CCC(N)=O)NC(=O)[C@H](C)NC(=O)CNC(=O)[C@H](CCCCN)NC(=O)[C@H](Cc2ccc(O)cc2)NC(=O)[C@H](Cc2c[nH]cn2)NC(=O)[C@H](CCCNC(=N)N)NC(=O)[C@H](C)NC(=O)[C@H](CCC(N)=O)NC(=O)[C@@H]2CCCN2C(=O)[C@H](Cc2c[nH]cn2)NC(=O)[C@H](CCC(=O)O)NC(=O)[C@H](CCC(N)=O)NC(=O)COCCOCCNC(=O)COCCOCCNC(=O)CC[C@H](NC(=O)CC[C@H](NC(=O)CC[C@H](NC(=O)CC[C@H](NC(=O)CCCCCCCCCCCCCCCCCCC(=O)O)C(=O)O)C(=O)O)C(=O)O)C(=O)O)CSSC[C@@H](C(=O)O)NC(=O)CNC(=O)[C@H](CC(C)C)NC(=O)CNC(=O)[C@H](CO)NC(=O)[C@H](CC(C)C)NC(=O)[C@H](CO)NC(=O)CNC1=O [compound 1399] ({C20 diacid-γGlu-γGlu-γGlu-γGlu-AEEA-AEEA}-QEHPQARHYKGAQKKGSSQGCFGLPLDRIGSLSGLGC-OH; disulfide 21-37)
- hNPR2 0% HSA. [EC50% rel CNP]: 137.0%

Compound: CC[C@H](C)[C@@H]1NC(=O)[C@H](CCCNC(=N)N)NC(=O)[C@H](CC(=O)O)NC(=O)[C@H](CC(C)C)NC(=O)[C@@H]2CCCN2C(=O)[C@H](CC(C)C)NC(=O)CNC(=O)[C@H](Cc2ccccc2)NC(=O)[C@@H](NC(=O)CNC(=O)[C@H](CO)NC(=O)[C@H](CO)NC(=O)[C@H](CC(C)C)NC(=O)CNC(=O)[C@H](CCCCN)NC(=O)[C@H](CCC(=O)O)NC(=O)[C@H](CCC(N)=O)NC(=O)[C@H](C)NC(=O)CNC(=O)[C@H](Cc2c[nH]cn2)NC(=O)[C@H](Cc2ccc(O)cc2)NC(=O)COCCOCCNC(=O)COCCOCCNC(=O)CC[C@H](NC(=O)CCCCCCCCCCCCCCCCC(=O)O)C(=O)O)CSSC[C@@H](C(=O)O)NC(=O)CNC(=O)[C@H](CC(C)C)NC(=O)CNC(=O)[C@H](CO)NC(=O)[C@H](CC(C)C)NC(=O)[C@H](CO)NC(=O)CNC1=O [compound 1242] ({C18 diacid-γGlu-AEEA-AEEA}-YHGAQEKGLSSGCFGLPLDRIGSLSGLGC-OH; disulfide 13-29)
- hNPR2 0% HSA. [EC50% rel CNP]: 5.4%

Compound: CC[C@H](C)[C@@H]1NC(=O)[C@H](CCCNC(=N)N)NC(=O)[C@H](CC(=O)O)NC(=O)[C@H](CC(C)C)NC(=O)[C@@H]2CCCN2C(=O)[C@H](CC(C)C)NC(=O)CNC(=O)[C@H](Cc2ccccc2)NC(=O)[C@@H](NC(=O)CNC(=O)[C@H](CCC(N)=O)NC(=O)[C@H](CO)NC(=O)[C@H](CC(C)C)NC(=O)CNC(=O)[C@H](CCCCN)NC(=O)[C@H](CCCCN)NC(=O)[C@H](CCC(N)=O)NC(=O)[C@H](C)NC(=O)CNC(=O)[C@H](CCC(=O)O)NC(=O)[C@H](Cc2ccc(O)cc2)NC(=O)[C@H](CCCCN)NC(=O)[C@H](C)NC(=O)[C@H](C)NC(=O)[C@H](CCC(N)=O)NC(=O)[C@@H]2CCCN2C(=O)[C@H](Cc2c[nH]cn2)NC(=O)[C@H](CCC(=O)O)NC(=O)[C@H](CCC(N)=O)NC(=O)COCCOCCNC(=O)COCCOCCNC(=O)CC[C@H](NC(=O)CCCCCCCCCCCCCCCCC(=O)O)C(=O)O)CSSC[C@@H](C(=O)O)NC(=O)CNC(=O)[C@H](CC(C)C)NC(=O)CNC(=O)[C@H](CO)NC(=O)[C@H](CC(C)C)NC(=O)[C@H](CO)NC(=O)CNC1=O [compound 1395] ({C18 diacid-γGlu-AEEA-AEEA}-QEHPQAAKYEGAQKKGLSQGCFGLPLDRIGSLSGLGC-OH; disulfide 21-37)
- hNPR2 0% HSA. [EC50% rel CNP]: 60.2%

Compound: CC[C@H](C)[C@@H]1NC(=O)[C@H](CCCNC(=N)N)NC(=O)[C@H](CC(=O)O)NC(=O)[C@H](CC(C)C)NC(=O)[C@@H]2CCCN2C(=O)[C@H](CC(C)C)NC(=O)CNC(=O)[C@H](Cc2ccccc2)NC(=O)[C@@H](NC(=O)CNC(=O)[C@H](CCCCN)NC(=O)[C@H](CO)NC(=O)[C@@H](NC(=O)CNC(=O)[C@@H](NC(=O)[C@H](CCCCN)NC(=O)[C@H](CCC(N)=O)NC(=O)[C@H](C)NC(=O)CNC(=O)[C@H](Cc2c[nH]cn2)NC(=O)[C@H](Cc2ccc(O)cc2)NC(=O)COCCOCCNC(=O)COCCOCCNC(=O)COCCOCCNC(=O)COCCOCCNC(=O)CC[C@H](NC(=O)CC[C@H](NC(=O)CCCCCCCCCCCCCCCCC(=O)O)C(=O)O)C(=O)O)[C@@H](C)O)C(C)C)CSSC[C@@H](C(=O)O)NC(=O)CNC(=O)[C@H](CC(C)C)NC(=O)CNC(=O)[C@H](CO)NC(=O)[C@H](CC(C)C)NC(=O)[C@H](CO)NC(=O)CNC1=O [compound 1425] ({C18 diacid-γGlu-γGlu-AEEA-AEEA-AEEA-AEEA}-YHGAQKTGVSKGCFGLPLDRIGSLSGLGC-OH; disulfide 13-29)
- hNPR2 0% HSA. [EC50% rel CNP]: 26.4%
